Measurements reported in US12576040B2, “Ionizable lipids and methods of manufacture and use thereof” (priority 2020, dated 2026).

Assay: Dynamic Light Scattering for LNP size
Format: physicochemical
Conditions: number-average from DLS
Protocol: (§1) • A: Ribogreen Assay for mRNA Encapsulation Efficiency. 1×TE Buffer and Triton Buffer (2% v/v in 1×TE Buffer) were added in duplicates into a black microplate per LNP. LNPs were diluted to 4 ng/ul in 1×DPBS pH 7.4 and added to each TE/Triton well in a ratio 1:1. Two standard curves were included in the Ribogreen Assay, one containing mRNA and 1×TE Buffer and other containing mRNA and Triton Buffer. Each one of these standard curves were used to calculate the mRNA concentration in each TE Buffer or Triton Buffer. This approach using two standard curves is more accurate for calculating the encapsulation efficiency and mRNA concentrations, in comparison to a single standard curve. Standards were included in the microplate after diluted LNPs were added to the plate. Microplates were incubated at 37° C. for 10 minutes to extract LNPs with Triton. Ribogreen reagent was diluted 1:100 in 1×TE Buffer and added to each well in a ratio 1:1. Microplates were immediately introduced into the Cytation 5 Cell Imaging Multi-Mode Reader (Biotek) to read Fluorescence (Ex485/Em528). The results are illustrated in FIG. 34. • B: Dynamic Light Scattering for LNP Size (red dots are PDI right y axis). LNPs were diluted to 6.25 ng/ul in 1×DPBS pH 7.4 and transferred into a quartz cuvette (ZEN2112) to measure size by Dynamic Light Scattering (DLS) in the Zetasizer Nano ZS (Malvern Panalytical) using particle RI of 1.45 and Absorption of 0.001 in 1×PBS at 25° C. with viscosity of 1.02 cP and RI of 1.335. Measurements were made using a 173° Backscatter angle of detection previously equilibrated to 25° C. for 30 seconds in duplicates, each with 5 runs and 10 second run duration, without delay between measurements. […] Data was analyzed using a General-Purpose model with normal resolution. The results are illustrated in FIG. 35. • C: Zeta Potential for LNP charge, pKa and pI. LNPs were diluted in a 75 mM TNS Buffer (10 mM of each of glycylglycine, acetate, imidazole, 20 mM borate, 25 mM NaCl) to contain 0.8 mg of total mRNA in 800 ul of the TNS Buffer and transferred into a Folded Capillary Zeta Cell (DTS1070) to measure size by Dynamic Light Scattering (DLS) and electrophoretic mobility by Electrophoretic Light Scattering (ELS) in the Zetasizer Nano ZS (Malvern Panalytical). Zeta potential is measured under conditions of controlled voltage to limit ohmic heating in a solution with 4 buffers with pKas spread across the pH range 3-10 with 0.5 intervals. LNP pKa is calculated by fitting the Henderson Hasselbalch equation to zeta potential data. LNP pI is found by interpolating zeta potential to zero. We use electrokinetic models to calculate Henry's function and charge of the LNP. The results are illustrated in FIG. 36. • D: TNS Assay for LNP pKa. LNPs were diluted to keep a final concentration of 75 uM of the ionizable lipid and 6 uM of TNS in a 75 mM TNS Buffer (10 mM of each of glycylglycine, acetate, imidazole, 20 mM borate, 25 mM NaCl) in order to keep a ratio TNS/ionizable of 0.08. Fluorescence TNS is measured in a solution with 4 buffers with pKas spread across the pH range 3-10 with 0.5 intervals. The pKa of the LNP was measured using the pH-dependence of fluorescence enhancement of the anionic dye TNS, higher intensity at lower pH and lower at high pH. LNP pKa is calculated by fitting the Henderson Hasselbalch equation to fluorescence data from the TNS Assay. The results are illustrated in FIG. 37. […]

Row | Compound | Diameter (nm)
1 | CCCCC/C=C\C/C=C\CCCCCCCCOC(=O)CCN(CCC(=O)OCCCCCCCC/C=C\C/C=C\CCCCC)CCN(C)C (racemic) [DL-C2/C2-DMA] | 40
2 | CCCCC/C=C\C/C=C\CCCCCCCCOC(=O)CCN(CCC(=O)OCCCCCCCC/C=C\C/C=C\CCCCC)CCN1CCN(C)CC1 (racemic) [DL-C2/C2-PipZ] | 64
3 | CCCCC/C=C\C/C=C\CCCCCCCCOC(=O)CCN(CCC(=O)OCCCCCCCC/C=C\C/C=C\CCCCC)CCN1CCCC1 (racemic) [DL-C2/C2-Pyr] | 48
4 | CCCCCCCCCCC(CCCCCCCC)COC(=O)CCN(CCC(=O)OCC(CCCCCCCC)CCCCCCCCCC)CCN1CCN(C)CC1 (centres unmarked) [BODD-C2/C2-PipZ] | 49

Assay: mRNA copies per LNP from molecular volume model and DLS diameter
Format: physicochemical
Conditions: average mRNA copies per LNP
Protocol: Exemplary ADDE ionizable lipids. pKas were obtained from ACDLabs Percepta for the ionizable lipid, and by zeta potential and TNS for LNPs containing the ionizable lipids. LNP isoelectric pI was obtained from the zeta potential. LNP diameter is number-average from DLS. Average mRNA copies per LNP was calculated using a molecular volume model and the DLS diameter and is proportional to LNP volume.
LNPs were diluted to 6.25 ng/μL total mRNA in PBS pH=7.4 and transferred into a quartz cuvette (ZEN2112) to measure size by Dynamic Light Scattering (DLS) in the Zetasizer Nano ZS (Malvern Panalytical) using particle RI of 1.45 and absorption of 0.001 in PBS at 25° C. with viscosity of 0.888 cP and RI of 1.335. Measurements were made using a 1730 backscatter angle of detection previously equilibrated to 25° C. for 30 seconds in duplicates, each with 5 runs and 10 second run duration, without delay between measurements. […] Data was analyzed using a General-Purpose model with normal resolution. Diameter are reported as the number-average that corresponds more closely to physical size seen in electron microscopy versus the zeta-average. A molecular volume model described previously was used to estimate the number of mRNA copies in the LNP using the number average diameter to calculate LNP volume. LNPs were diluted into the TNS buffer described above at pH ranging from 3-10 for zeta potential measurement by Electrophoretic Light Scattering (ELS) in the Zetasizer Nano ZP (Malvern Panalytical) using the same material and dispersant parameters described above and the Smoluchowski model. Each measurement had voltage set manually at 80 Volts to avoid ohmic heating that occurred if voltage was set automatically. Measurements in the disposable folded capillary cuvette with an automatic attenuation selection for photon counts were made in triplicates for 20 runs each, and 30 second delay between each replicate. Mathematica was used to fit zeta potential data to the data to the extended Henderson-Hasselbalch equation Ψ=Ψ_max−((Ψ_max−Ψ_min))/((1+10^(((pKa−pH))/n))) to provide the pKa, n and low pH and high pH zeta potential limits Ψ_max and Ψ_min, respectively. The extended model is used here, since the LNP pKa is ionization-state-dependent in a way similar to a polyelectrolyte. […] The isoelectric pI was the pH found by interpolating zeta potential to zero. Cryoelectron Microscopy

Row | Compound | mRNA copies
5 | CCCCC/C=C\C/C=C\CCCCCCCCOC(=O)CCN(CCC(=O)OCCCCCCCC/C=C\C/C=C\CCCCC)CCN(C)C (racemic) [DL-C2/C2-DMA] | 1.1
6 | CCCCC/C=C\C/C=C\CCCCCCCCOC(=O)CCN(CCC(=O)OCCCCCCCC/C=C\C/C=C\CCCCC)CCN1CCN(C)CC1 (racemic) [DL-C2/C2-PipZ] | 4.3
7 | CCCCC/C=C\C/C=C\CCCCCCCCOC(=O)CCN(CCC(=O)OCCCCCCCC/C=C\C/C=C\CCCCC)CCN1CCCC1 (racemic) [DL-C2/C2-Pyr] | 1.5
8 | CCCCCCCCCCC(CCCCCCCC)COC(=O)CCN(CCC(=O)OCC(CCCCCCCC)CCCCCCCCCC)CCN1CCN(C)CC1 (centres unmarked) [BODD-C2/C2-PipZ] | 1.9

Assay: not given
Format: physicochemical
Conditions: LNP containing the ionizable lipid; Henderson Hasselbalch fit to zeta potential
Protocol: • A: Ribogreen Assay for mRNA Encapsulation Efficiency. 1×TE Buffer and Triton Buffer (2% v/v in 1×TE Buffer) were added in duplicates into a black microplate per LNP. LNPs were diluted to 4 ng/ul in 1×DPBS pH 7.4 and added to each TE/Triton well in a ratio 1:1. Two standard curves were included in the Ribogreen Assay, one containing mRNA and 1×TE Buffer and other containing mRNA and Triton Buffer. Each one of these standard curves were used to calculate the mRNA concentration in each TE Buffer or Triton Buffer. This approach using two standard curves is more accurate for calculating the encapsulation efficiency and mRNA concentrations, in comparison to a single standard curve. Standards were included in the microplate after diluted LNPs were added to the plate. Microplates were incubated at 37° C. for 10 minutes to extract LNPs with Triton. Ribogreen reagent was diluted 1:100 in 1×TE Buffer and added to each well in a ratio 1:1. Microplates were immediately introduced into the Cytation 5 Cell Imaging Multi-Mode Reader (Biotek) to read Fluorescence (Ex485/Em528). The results are illustrated in FIG. 34. • B: Dynamic Light Scattering for LNP Size (red dots are PDI right y axis). LNPs were diluted to 6.25 ng/ul in 1×DPBS pH 7.4 and transferred into a quartz cuvette (ZEN2112) to measure size by Dynamic Light Scattering (DLS) in the Zetasizer Nano ZS (Malvern Panalytical) using particle RI of 1.45 and Absorption of 0.001 in 1×PBS at 25° C. with viscosity of 1.02 cP and RI of 1.335. Measurements were made using a 173° Backscatter angle of detection previously equilibrated to 25° C. for 30 seconds in duplicates, each with 5 runs and 10 second run duration, without delay between measurements. […] Data was analyzed using a General-Purpose model with normal resolution. The results are illustrated in FIG. 35. • C: Zeta Potential for LNP charge, pKa and pI. LNPs were diluted in a 75 mM TNS Buffer (10 mM of each of glycylglycine, acetate, imidazole, 20 mM borate, 25 mM NaCl) to contain 0.8 mg of total mRNA in 800 ul of the TNS Buffer and transferred into a Folded Capillary Zeta Cell (DTS1070) to measure size by Dynamic Light Scattering (DLS) and electrophoretic mobility by Electrophoretic Light Scattering (ELS) in the Zetasizer Nano ZS (Malvern Panalytical). Zeta potential is measured under conditions of controlled voltage to limit ohmic heating in a solution with 4 buffers with pKas spread across the pH range 3-10 with 0.5 intervals. LNP pKa is calculated by fitting the Henderson Hasselbalch equation to zeta potential data. LNP pI is found by interpolating zeta potential to zero. We use electrokinetic models to calculate Henry's function and charge of the LNP. The results are illustrated in FIG. 36. • D: TNS Assay for LNP pKa. LNPs were diluted to keep a final concentration of 75 uM of the ionizable lipid and 6 uM of TNS in a 75 mM TNS Buffer (10 mM of each of glycylglycine, acetate, imidazole, 20 mM borate, 25 mM NaCl) in order to keep a ratio TNS/ionizable of 0.08. Fluorescence TNS is measured in a solution with 4 buffers with pKas spread across the pH range 3-10 with 0.5 intervals. The pKa of the LNP was measured using the pH-dependence of fluorescence enhancement of the anionic dye TNS, higher intensity at lower pH and lower at high pH. LNP pKa is calculated by fitting the Henderson Hasselbalch equation to fluorescence data from the TNS Assay. The results are illustrated in FIG. 37.
LNPs were diluted to 6.25 ng/μL total mRNA in PBS pH=7.4 and transferred into a quartz cuvette (ZEN2112) to measure size by Dynamic Light Scattering (DLS) in the Zetasizer Nano ZS (Malvern Panalytical) using particle RI of 1.45 and absorption of 0.001 in PBS at 25° C. with viscosity of 0.888 cP and RI of 1.335. Measurements were made using a 1730 backscatter angle of detection previously equilibrated to 25° C. for 30 seconds in duplicates, each with 5 runs and 10 second run duration, without delay between measurements. […]

Row | Compound | pKa,ZP
9 | CCCCC/C=C\C/C=C\CCCCCCCCOC(=O)CCN(CCC(=O)OCCCCCCCC/C=C\C/C=C\CCCCC)CCN(C)C (racemic) [DL-C2/C2-DMA] | 6.9
10 | CCCCC/C=C\C/C=C\CCCCCCCCOC(=O)CCN(CCC(=O)OCCCCCCCC/C=C\C/C=C\CCCCC)CCN1CCN(C)CC1 (racemic) [DL-C2/C2-PipZ] | 6.2
11 | CCCCC/C=C\C/C=C\CCCCCCCCOC(=O)CCN(CCC(=O)OCCCCCCCC/C=C\C/C=C\CCCCC)CCN1CCCC1 (racemic) [DL-C2/C2-Pyr] | 6.8
12 | CCCCCCCCCCC(CCCCCCCC)COC(=O)CCN(CCC(=O)OCC(CCCCCCCC)CCCCCCCCCC)CCN1CCN(C)CC1 (centres unmarked) [BODD-C2/C2-PipZ] | 5.4

Same assay, conditions: LNP isoelectric pI from zeta potential

Row | Compound | pI, ZP
13 | CCCCC/C=C\C/C=C\CCCCCCCCOC(=O)CCN(CCC(=O)OCCCCCCCC/C=C\C/C=C\CCCCC)CCN(C)C (racemic) [DL-C2/C2-DMA] | 7.1
14 | CCCCC/C=C\C/C=C\CCCCCCCCOC(=O)CCN(CCC(=O)OCCCCCCCC/C=C\C/C=C\CCCCC)CCN1CCN(C)CC1 (racemic) [DL-C2/C2-PipZ] | 7.6
15 | CCCCC/C=C\C/C=C\CCCCCCCCOC(=O)CCN(CCC(=O)OCCCCCCCC/C=C\C/C=C\CCCCC)CCN1CCCC1 (racemic) [DL-C2/C2-Pyr] | 7.2
16 | CCCCCCCCCCC(CCCCCCCC)COC(=O)CCN(CCC(=O)OCC(CCCCCCCC)CCCCCCCCCC)CCN1CCN(C)CC1 (centres unmarked) [BODD-C2/C2-PipZ] | 5.9

Assay: not given
Format: physicochemical
Conditions: LNP containing the ionizable lipid
Protocol: as §1, with “LNPs were diluted to keep a final concentration of 75 uM of the ionizable lipid and 6 uM of TNS in a 75 mM TNS Buffer (10 mM of each of glycylglycine, acetate, imidazole, 20 mM borate, 25 mM NaCl) in order to keep a ratio TNS/ionizable of 0.08.” left out, “Assay.” for “Assay. The results are illustrated in FIG. 37.”
LNP pKa was determined using the TNS assay. […] The Cytation 5 Cell Imaging Multi-Mode Reader (Biotek) was used to read Fluorescence (Ex321/Em445). The pH was measured in each well after TNS addition. […]

Row | Compound | pKa, TNS
17 | CCCCC/C=C\C/C=C\CCCCCCCCOC(=O)CCN(CCC(=O)OCCCCCCCC/C=C\C/C=C\CCCCC)CCN(C)C (racemic) [DL-C2/C2-DMA] | 8.0
18 | CCCCC/C=C\C/C=C\CCCCCCCCOC(=O)CCN(CCC(=O)OCCCCCCCC/C=C\C/C=C\CCCCC)CCN1CCN(C)CC1 (racemic) [DL-C2/C2-PipZ] | 7.8
19 | CCCCC/C=C\C/C=C\CCCCCCCCOC(=O)CCN(CCC(=O)OCCCCCCCC/C=C\C/C=C\CCCCC)CCN1CCCC1 (racemic) [DL-C2/C2-Pyr] | 7.9
20 | CCCCCCCCCCC(CCCCCCCC)COC(=O)CCN(CCC(=O)OCC(CCCCCCCC)CCCCCCCCCC)CCN1CCN(C)CC1 (centres unmarked) [BODD-C2/C2-PipZ] | 6.6
